Data from patent US20230234942A1, “COMPOUNDS FOR TREATING HUNTINGTON'S DISEASE” (PTC Therapeutics, Inc., priority 2020, published 2023).

Tested on: Endogenous Huntingtin Protein
Test: Endogenous Huntingtin Protein Assay (ELISA-based MSD electrochemiluminescence)
Assay type: cell-based
Settings: Table 2; MSD plates coated with MW1 (expanded polyglutamine) or MAB2166 capture antibody; "inactive" = result above the detection limit of the assay
Summary of the method: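 MSD electrochemiluminescence sandwich ELISA: capture with MW1 (expanded polyQ) or MAB2166 at 1 µg/mL, samples incubated overnight at 4 °C. Detection by rabbit mAb #56565 then SULFO-TAG anti-rabbit antibody, each 0.25 µg/mL for 1 h at room temperature, read in buffer T on SI 6000 imager.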

Row | IC50 | IC50 (nM) | Compound
1 | 6.9 nM | – | Oc1cc(-c2c[nH]nc2F)ccc1-c1cnc(N2CCN[C@H](C3CC3)C2)nn1 [Cpd 7, 2-{3-[(3R)-3-cyclopropylpiperazin-1-yl]-1,2,4-triazin-6-yl}-5-(3-fluoro-1H-pyrazol-4-yl)phenol]
2 | 9.8 nM | – | C[C@@H]1CN(c2ncc(-c3ccc(-c4cnc5nn(C)cc5c4)cc3O)nn2)C[C@H](C)N1 [Cpd 97, 2-{3-[(3R,5S)-3,5-dimethylpiperazin-1-yl]-1,2,4-triazin-6-yl}-5-(2-methyl-2H-pyrazolo[3,4-b]pyridin-5-yl)phenol]
3 | 3.7 nM | – | Cc1cn2cc(-c3ccc(-c4cnc(N5C[C@@H](C)N[C@@H](C)C5)nn4)c(O)c3)cc(F)c2n1 [Cpd 66, 2-{3-[(3R,5S)-3,5-dimethylpiperazin-1-yl]-1,2,4-triazin-6-yl]-5-(8-fluoro-2-methylimidazo[1,2-a]pyridin-6-yl)phenol]
4 | 25.1 nM | – | CN1CCN(c2ncc(-c3ccc(-c4cn[nH]c4)cc3O)nn2)CC1C1CC1 (stereo not shown) [Cpd 27, 2-[3-(3-cyclopropyl-4-methylpiperazin-1-yl)-1,2,4-triazin-6-yl]-5-(1H-pyrazol-4-yl)phenol]
5 | 47.7 nM | – | Oc1cc(-c2cn[nH]c2)ccc1-c1cnc(N2CCNC(C3CC3(F)F)C2)nn1 (stereo not shown) [Cpd 36, 2-{3-[3-(2,2-dilluorocyclopropyl)piperazin-1-yl]-1,2,4-triazin-6-yl}-5-(1H-pyrazol-4-yl)phenol]
6 | 7.9 nM | – | Cc1nc2c(C)cc(-c3ccc(-c4cnc(N5CCN[C@@H](C(C)C)C5)nn4)c(O)c3)nn2n1 [Cpd 92, 5-(2,8-dimethyl[1,2,4]triazolo[1,5-b]pyridazin-6-yl)-2-{3-[(3S)-3-(propan-2-yl)piperazin-1-yl]-1,2,4-triazin-6-yl}phenol]
7 | 105 nM | – | CC(C)[C@H]1CN(c2ncc(-c3ccc(-c4nc(Cl)cs4)cc3O)nn2)CCN1 [Cpd 188, 5-(4-chloro-1,3-thiazol-2-yl)-2-{3-[(3S)-3-(propan-2-yl)piperazin-1-yl]-1,2,4-triazin-6-yl}phenol]
8 | 88.3 nM | – | COc1cc(-c2ccc(-c3cnc(N4C[C@@H](C5CC5)N[C@@H](C)C4)nn3)c(O)c2)nc(OC)n1 [Cpd 220, 2-{3-[(3R,5S)-3-cyclopropyl-5-methylpiperazin-1-yl]-1,2,4-triazin-6-yl}-5-(2,6-dimethoxypyrimidin-4-yl)phenol]
9 | 140 nM | – | CC(C)[C@H]1CN(c2ncc(-c3ccc(-c4cnsc4)cc3O)nn2)CCN1 [Cpd 250, 2-{3-[(3S)-3-(propan-2-yl)piperazin-1-yl]-1,2,4-triazin-6-yl]-5-(1,2-thiazol-4-yl)phenol]
10 | 24.9 nM | – | CN1CCN(c2ncc(-c3ccc(-c4cnc5nn(C)cc5c4)cc3O)nn2)CC1 [Cpd 110, 2-[3-(4-methylpiperazin-1-yl)-1,2,4-triazin-6-yl]-5-(2-methyl-2H-pyrazolo[3,4-b]pyridin-5-yl)phenol]
11 | 4.5 nM | – | CC1([C@H]2CN(c3ncc(-c4ccc(-c5cnn6c5CCC6)cc4O)nn3)CCN2)CC1 [Cpd 280, 5-(5,6-dihydro-4H-pyrrolo[1,2-b]pyrazol-3-yl)-2-{3-[(3S)-3-(1-methylcyclopropyl)piperazin-1-yl]-1,2,4-triazin-6-yl}phenol]
12 | 139 nM | – | CCc1cc(-c2ccc(-c3cnc(N4CCN[C@@H](C(C)C)C4)nn3)c(O)c2)ncn1 [Cpd 150, 5-(6-ethylpyrimidin-4-yl)-2-{3-[(3S)-3-(propan-2-yl)piperazin-1-yl]-1,2,4-triazin-6-yl}phenol]
13 | 3.3 nM | – | CC(C)[C@H]1CN(c2ncc(-c3ccc(-c4cnc5nn(C)nc5c4)cc3O)nn2)CCN1 [Cpd 212, 5-(2-methyl-2H-[1,2,3]triazolo[4,5-b]pyridin-6-yl)-2-{3-[(3S)-3-(propan-2-yl)piperazin-1-yl]-1,2,4-triazin-6-yl}phenol]
14 | 5.8 nM | – | Cc1cc(-c2ccc(-c3cnc(N4CCN[C@@H](C(C)C)C4)nn3)c(O)c2)cc2cn(C)nc12 [Cpd 140, 5-(2,7-dimethyl-2H-indazol-5-yl)-2-{3-[(3S)-3-(propan-2-yl)piperazin-1-yl]-1,2,4-triazin-6-yl}phenol]
15 | 9.5 nM | – | C[C@@H]1CN(c2ncc(-c3ccc(-c4c[nH]nc4F)cc3O)nn2)C[C@H](C2CCC2)N1 [Cpd 236, 2-{3-[(3S,5R)-3-cyclobutyl-5-methylpiperazin-1-yl]-1,2,4-triazin-6-yl}-5-(3-fluoro-1H-pyrazol-4-yl)phenol]
16 | 6.4 nM | – | Cc1cn2cc(-c3ccc(-c4cnc(N5C[C@@H](C)N[C@@H](C)C5)nn4)c(O)c3)cc(C#N)c2n1 [Cpd 87, 6-(4-{3-[(3R,5S)-3,5-dimethylpiperazin-1-yl]-1,2,4-triazin-6-yl}-3-hydroxyphenyl)-2-methylimidazo[1,2-a]pyridine-8-carbonitrile]
17 | – | inactive | C[C@@H]1CN(c2ncc(-c3ccc(-c4ccc5nc(C(F)(F)F)cn5n4)cc3O)nn2)C[C@H](C)N1 [Cpd 118, 2-{3-[(3R,5S)-3,5-dimethylpiperazin-1-yl]-1,2,4-triazin-6-yl)-5-[2-(trifluoromethyl)imidazo[1,2-b]pyridazin-6-yl]phenol]

Row | IC50 | IC50 (nM) | Compound
18 | 6.5 nM | – | CC(C)[C@H]1CN(c2ncc(-c3ccc(-c4ccc5nn(C)cc5c4)cc3O)nn2)CCN1 [Cpd 88, 5-(2-methyl-2H-indazol-5-yl)-2-{3-[(3S)-3-(propan-2-yl)piperazin-1-yl]-1,2,4-triazin-6-yl}phenol]
19 | 2.2 nM | – | CCC1CN(c2ncc(-c3ccc(-c4cc(F)c5nc(C)cn5c4)cc3O)nn2)CCN1 (stereo not shown) [Cpd 68, 2-[3-(3-ethylpiperazin-1-yl)-1,2,4-triazin-6-yl]-5-(8-fluoro-2-methylimidazo[1,2-a]pyridin-6-yl)phenol]
20 | 154 nM | – | [2H]C([2H])([2H])n1cc(-c2ccc(-c3cnc(N4CCN[C@@H](C(C)C)C4)nn3)c(O)c2)cn1 [Cpd 47, 5-[1-(Hz)methyl-1H-pyrazol-4-yl]-2-{3-[(3S)-3-(propan-2-yl)piperazin-1-yl]-1,2,4-triazin-6-yl}phenol]
21 | 492 nM | – | CC(C)[C@H]1CN(c2ncc(-c3ccc(-c4ncc(F)s4)cc3O)nn2)CCN1 [Cpd 196, 5-(5-fluoro-1,3-thiazol-2-yl)-2-{3-[(3S)-3-(propan-2-yl)piperazin-1-yl]-1,2,4-triazin-6-yl}phenol]
22 | 114 nM | – | C[C@H]1CN(c2ncc(-c3ccc(-c4cn[nH]c4F)cc3O)nn2)C[C@@H](C2CC2)N1 [Cpd 215, 2-{3-[(3R,5S)-3-cyclopropyl-5-methylpiperazin-1-yl]-1,2,4-triazin-6-yl}-5-(5-fluoro-1H-pyrazol-4-yl)phenol]
23 | 18.6 nM | – | CC(C)(C)[C@H]1CN(c2ncc(-c3ccc(-c4cn5ncnc5cn4)cc3O)nn2)CCN1 [Cpd 129, 2-{3-[(3S)-3-tert-butylpiperazin-1-yl]-1,2,4-triazin-6-yl}-5-([1,2,4]triazolo[1,5-a]pyrazin-6-yl)phenol]
24 | 10.9 nM | – | Cc1nc2ccc(-c3ccc(-c4cnc(N5C[C@@H](C)N[C@@H](C)C5)nn4)c(O)c3)nn2n1 [Cpd 100, 2-{3-[(3R,5S)-3,5-dimethylpiperazin-1-yl]-1,2,4-triazin-6-yl}-5-(2-methyl[1,2,4]triazolo[1,5-b]pyridazin-6-yl)phenol]
25 | 67.9 nM | – | CC(C)[C@@H]1CN(c2ncc(-c3ccc(-c4cn[nH]c4F)cc3O)nn2)C[C@H](C)N1 [Cpd 217, 5-(5-fluoro-1H-pyrazol-4-yl)-2-{3-[(3S,5R)-3-methyl-5-(propan-2-yl)piperazin-1-yl]-1,2,4-triazin-6-yl]phenol]
26 | 5.7 nM | – | Cn1nc2cc(-c3ccc(-c4cnc(N5CCN[C@@H](C6(C)CC6)C5)nn4)c(O)c3)cnc2n1 [Cpd 241, 2-{3-[(3S)-3-(1-methylcyclopropyl)piperazin-1-yl]-1,2,4-triazin-6-yl}-5-(2-methyl-2H-[1,2,3]triazolo[4,5-b]pyridin-6-yl)phenol]
27 | 125 nM | – | CC(C)[C@H]1CN(c2ncc(-c3ccc(-c4cnc5nsnc5c4)cc3O)nn2)CCN1 [Cpd 264, 2-{3-[(3S)-3-(propan-2-yl)piperazin-1-yl]-1,2,4-triazin-6-yl}-5-([1,2,5]thiadiazolo[3,4-b]pyridin-6-yl)phenol]
28 | 440 nM | – | C[C@@H]1CN(c2ncc(-c3ccc(-n4nccn4)cc3O)nn2)C[C@H](C)N1 [Cpd 54, 2-{3-[(3R,5S)-3,5-dimethylpiperazin-1-yl]-1,2,4-triazin-6-yl}-5-(2H-1,2,3-triazol-2-yl)phenol]
29 | 8.7 nM | – | [2H]C([2H])([2H])Oc1cc(-c2ccc(-c3cnc(N4CCNC(C(C)(C)O)C4)nn3)c(O)c2)ncn1 (stereo not shown) [Cpd 8, 2-{3-[3-(2-hydroxypropan-2-yl)piperazin-1-yl]-1,2,4-triazin-6-yl}-5-{6-[(^2H3)methyloxy]pyrimidin-4-yl}phenol]
30 | 171 nM | – | C[C@@H]1CN(c2ncc(-c3ccc(-c4ccn(C)n4)cc3O)nn2)C[C@H](C2CCC2)N1 [Cpd 240, 2-{3-[(3S,5R)-3-cyclobutyl-5-methylpiperazin-1-yl]-1,2,4-triazin-6-yl}-5-(1-methyl-1H-pyrazol-3-yl)phenol]
31 | 417 nM | – | CC(C)[C@H]1CN(c2ncc(-c3ccc(-c4cn(C)nn4)cc3O)nn2)CCN1 [Cpd 260, 5-(1-methyl-1H-1,2,3-triazol-4-yl)-2-{3-[(3S)-3-(propan-2-yl)piperazin-1-yl]-1,2,4-triazin-6-yl}phenol]
32 | 55.1 nM | – | [2H]C([2H])([2H])n1cc(-c2ccc(-c3cnc(N4C[C@@H](C)N[C@@H](C5CCC5)C4)nn3)c(O)c2)cn1 [Cpd 238, 2-{3-[(3S,5R)-3-cyclobutyl-5-methylpiperazin-1-yl]-1,2,4-triazin-6-yl}-5-[l-(^2H3)methyl-1H-pyrazol-4-yl]phenol]
33 | 4.4 nM | – | CC(C)[C@H]1CN(c2ncc(-c3ccc(-c4c[nH]nc4F)cc3O)nn2)CCN1 [Cpd 3, 5-(3-fluoro-1H-pyrazol-4-yl)-2-{3-[(3S)-3-(propan-2-yl)piperazin-1-yl]-1,2,4-triazin-6-yl}phenol]

Row | Compound | IC50 | IC50 (nM)
34 | 4-fluoro-5-[1-(^2H3)methyl-1H-pyrazol-4-yl]-2-{3-[(3S)-3-(propan-2-yl)piperazin-1-yl]-1,2,4-triazin-6-yl}phenol [Cpd 152] | 15 nM | –
